Results: paper PMC10686834, “Targeting myeloid chemotaxis to reverse prostate cancer therapy resistance” (Nature, 2023)
Entries after “also recorded” stand apart in the source; their conditions may differ.

Tested on: patients with ARSI-resistant mCRPC
Experiment: Phase 1 trial of AZD5069 plus enzalutamide: safety and tolerability (DLTs, treatment-emergent adverse events, NCI-CTCAE v.4.0)
Assay type: in vivo
Description: The primary trial objective was to evaluate the safety and tolerability of the combination. Key secondary objectives were to evaluate pharmacokinetic–pharmacodynamic parameters and antitumour activity.
Eligible patients were consenting patients aged ≥18 years, who had mCRPC with histologically confirmed prostate adenocarcinoma histology, documented cancer progression at the time of trial entry by Response Evaluation Criteria in Solid Tumors (v.1.1) and/or Prostate Cancer Working Group 2 criteria, and PSA of ≥10 ng ml^−1 at screening.
The dose-escalation phase used a rule-based 3 + 3 design, with an initial three patients enrolled per dose level. If none of the first three patients experienced a DLT, dose escalation proceeded to the next dose level. […] If fewer than two of six patients at any dose level experienced a DLT, dose escalation continued to the next level. If at least two out of up to six patients experienced a DLT, dose escalation stopped and this dose level was defined as the maximum administered dose. Once this maximum administered dose was defined, the maximum tolerated dose (MTD) was confirmed at the dose level below the maximum administered dose. At least six evaluable patients were required to establish the MTD at a specific dose level. […] Intra-patient dose escalation was not permitted. Start of dosing between the first and second patient enrolled to each dose level was staggered by 1 week. Once the MTD was determined in the phase 1 study, the recommended phase 2 dose was determined on the basis of available data, including but not limited to safety and response.
DLTs were defined as described in the study protocol. […] Prophylaxis with growth factor support or antipyretics were not permitted. Investigators determined whether an adverse event was related to the study drugs. If a patient experienced clinically significant and/or unacceptable toxicity, including a DLT, not attributable to the disease or disease-related processes, dosing was interrupted or the dose was reduced and supportive therapy was administered as required.

## C[C@@H](Oc1cc(NS(=O)(=O)N2CCC2)nc(SCc2cccc(F)c2F)n1)[C@@H](O)CO [AZD5069]
AZD5069 40 mg BD (n=3)
  TEAE Anemia, All G: 1 (33) n (%)
  TEAE Anemia, G≥3: 0 (0) n (%)
  TEAE Aphasia, All G: 0 (0) n (%)
  TEAE Aphasia, G≥3: 0 (0) n (%)
  TEAE Arthralgia, All G: 0 (0) n (%)
  TEAE Arthralgia, G≥3: 0 (0) n (%)
  TEAE Aspartate aminotransferase increased, All G: 0 (0) n (%)
  TEAE Aspartate aminotransferase increased, G≥3: 0 (0) n (%)
  TEAE Constipation, All G: 0 (0) n (%)
  TEAE Constipation, G≥3: 0 (0) n (%)
  TEAE Death, All G: 0 (0) n (%)
  TEAE Death, G≥3: 0 (0) n (%)
  TEAE Decreased appetite, All G: 0 (0) n (%)
  TEAE Decreased appetite, G≥3: 0 (0) n (%)
  TEAE Diarrhoea, All G: 0 (0) n (%)
  TEAE Diarrhoea, G≥3: 0 (0) n (%)
  TEAE Dry skin, All G: 0 (0) n (%)
  TEAE Dry skin, G≥3: 0 (0) n (%)
  TEAE Fatigue, All G: 0 (0) n (%)
  TEAE Fatigue, G≥3: 0 (0) n (%)
  TEAE Headache, All G: 0 (0) n (%)
  TEAE Headache, G≥3: 0 (0) n (%)
  TEAE Hypophosphataemia, All G: 0 (0) n (%)
  TEAE Hypophosphataemia, G≥3: 0 (0) n (%)
  TEAE Nausea, All G: 1 (33) n (%)
  TEAE Nausea, G≥3: 0 (0) n (%)
  TEAE Neutrophil decreased, All G: 2 (67) n (%)
  TEAE Neutrophil decreased, G≥3: 0 (0) n (%)
  TEAE Oedema genital, All G: 0 (0) n (%)
  TEAE Oedema genital, G≥3: 0 (0) n (%)
  TEAE Platelet decreased, All G: 0 (0) n (%)
  TEAE Platelet decreased, G≥3: 0 (0) n (%)
  TEAE Pruritus, All G: 1 (33) n (%)
  TEAE Pruritus, G≥3: 0 (0) n (%)
  TEAE Skin infection, All G: 0 (0) n (%)
  TEAE Skin infection, G≥3: 0 (0) n (%)
  TEAE Vomiting, All G: 1 (33) n (%)
  TEAE Vomiting, G≥3: 0 (0) n (%)
  TEAE White blood cell decreased, All G: 0 (0) n (%)
  TEAE White blood cell decreased, G≥3: 0 (0) n (%)
AZD5069 40 mg BD to 320 mg BD plus enzalutamide 160 mg OD, 21 patients evaluable for DLTs
  dose-limiting toxicity (DLT): did not observe any DLT; also recorded: without dose-limiting toxicity
AZD5069 80 mg BD (n=4)
  TEAE Anemia, All G: 0 (0) n (%)
  TEAE Anemia, G≥3: 0 (0) n (%)
  TEAE Aphasia, All G: 0 (0) n (%)
  TEAE Aphasia, G≥3: 0 (0) n (%)
  TEAE Arthralgia, All G: 0 (0) n (%)
  TEAE Arthralgia, G≥3: 0 (0) n (%)
  TEAE Aspartate aminotransferase increased, All G: 0 (0) n (%)
  TEAE Aspartate aminotransferase increased, G≥3: 0 (0) n (%)
  TEAE Constipation, All G: 0 (0) n (%)
  TEAE Constipation, G≥3: 0 (0) n (%)
  TEAE Death, All G: 0 (0) n (%)
  TEAE Death, G≥3: 0 (0) n (%)
  TEAE Decreased appetite, All G: 0 (0) n (%)
  TEAE Decreased appetite, G≥3: 0 (0) n (%)
  TEAE Diarrhoea, All G: 0 (0) n (%)
  TEAE Diarrhoea, G≥3: 0 (0) n (%)
  TEAE Dry skin, All G: 0 (0) n (%)
  TEAE Dry skin, G≥3: 0 (0) n (%)
  TEAE Fatigue, All G: 1 (25) n (%)
  TEAE Fatigue, G≥3: 0 (0) n (%)
  TEAE Headache, All G: 0 (0) n (%)
  TEAE Headache, G≥3: 0 (0) n (%)
  TEAE Hypophosphataemia, All G: 1 (25) n (%)
  TEAE Hypophosphataemia, G≥3: 0 (0) n (%)
  TEAE Nausea, All G: 0 (0) n (%)
  TEAE Nausea, G≥3: 0 (0) n (%)
  TEAE Neutrophil decreased, All G: 3 (75) n (%)
  TEAE Neutrophil decreased, G≥3: 1 (25) n (%)
  TEAE Oedema genital, All G: 0 (0) n (%)
  TEAE Oedema genital, G≥3: 0 (0) n (%)
  TEAE Platelet decreased, All G: 0 (0) n (%)
  TEAE Platelet decreased, G≥3: 0 (0) n (%)
  TEAE Pruritus, All G: 0 (0) n (%)
  TEAE Pruritus, G≥3: 0 (0) n (%)
  TEAE Skin infection, All G: 1 (25) n (%)
  TEAE Skin infection, G≥3: 0 (0) n (%)
  TEAE Vomiting, All G: 0 (0) n (%)
  TEAE Vomiting, G≥3: 0 (0) n (%)
  TEAE White blood cell decreased, All G: 0 (0) n (%)
  TEAE White blood cell decreased, G≥3: 0 (0) n (%)
AZD5069 120 mg BD (n=3)
  TEAE Anemia, All G: 1 (33) n (%)
  TEAE Anemia, G≥3: 0 (0) n (%)
  TEAE Aphasia, All G: 0 (0) n (%)
  TEAE Aphasia, G≥3: 0 (0) n (%)
  TEAE Arthralgia, All G: 0 (0) n (%)
  TEAE Arthralgia, G≥3: 0 (0) n (%)
  TEAE Aspartate aminotransferase increased, All G: 0 (0) n (%)
  TEAE Aspartate aminotransferase increased, G≥3: 0 (0) n (%)
  TEAE Constipation, All G: 1 (33) n (%)
  TEAE Constipation, G≥3: 0 (0) n (%)
  TEAE Death, All G: 0 (0) n (%)
  TEAE Death, G≥3: 0 (0) n (%)
  TEAE Decreased appetite, All G: 0 (0) n (%)
  TEAE Decreased appetite, G≥3: 0 (0) n (%)
  TEAE Diarrhoea, All G: 0 (0) n (%)
  TEAE Diarrhoea, G≥3: 0 (0) n (%)
  TEAE Dry skin, All G: 0 (0) n (%)
  TEAE Dry skin, G≥3: 0 (0) n (%)
  TEAE Fatigue, All G: 1 (33) n (%)
  TEAE Fatigue, G≥3: 0 (0) n (%)
  TEAE Headache, All G: 0 (0) n (%)
  TEAE Headache, G≥3: 0 (0) n (%)
  TEAE Hypophosphataemia, All G: 0 (0) n (%)
  TEAE Hypophosphataemia, G≥3: 0 (0) n (%)
  TEAE Nausea, All G: 1 (33) n (%)
  TEAE Nausea, G≥3: 0 (0) n (%)
  TEAE Neutrophil decreased, All G: 3 (100) n (%)
  TEAE Neutrophil decreased, G≥3: 2 (67) n (%)
  TEAE Oedema genital, All G: 0 (0) n (%)
  TEAE Oedema genital, G≥3: 0 (0) n (%)
  TEAE Platelet decreased, All G: 1 (33) n (%)
  TEAE Platelet decreased, G≥3: 0 (0) n (%)
  TEAE Pruritus, All G: 0 (0) n (%)
  TEAE Pruritus, G≥3: 0 (0) n (%)
  TEAE Skin infection, All G: 0 (0) n (%)
  TEAE Skin infection, G≥3: 0 (0) n (%)
  TEAE Vomiting, All G: 0 (0) n (%)
  TEAE Vomiting, G≥3: 0 (0) n (%)
  TEAE White blood cell decreased, All G: 0 (0) n (%)
  TEAE White blood cell decreased, G≥3: 0 (0) n (%)
AZD5069 160 mg BD (n=6)
  TEAE Anemia, All G: 2 (33) n (%)
  TEAE Anemia, G≥3: 1 (17) n (%)
  TEAE Aphasia, All G: 0 (0) n (%)
  TEAE Aphasia, G≥3: 0 (0) n (%)
  TEAE Arthralgia, All G: 0 (0) n (%)
